Source: the NIST ThermoML archive (doi:10.1016/j.jct.2013.08.011)
Numbers after ± are expanded uncertainties.

Columns and labels:
[1] = Liquid; for mass density: 293.15 K, 101.33 kPa, Vibrating tube method; for Normal boiling temperature: Ebulliometric method (Recirculating still)
[2] = refractive index (Na D-line) (dimensionless); conditions: 293.15 K; 101.33 kPa; Liquid; Standard Abbe refractometry

mass density [1] | Normal boiling temperature [1] | refractive index [2] | Structure (SMILES)
783.4 ± 2 kg/m3 | 81.50 ± 0.2 °C | 1.3445 ± 0.0007 | CC#N [acetonitrile]
804.1 ± 2 kg/m3 | 97.30 ± 0.2 °C | 1.3865 ± 0.0007 | CCCO [propan-1-ol]
– | 197.48 ± 0.2 °C | 1.4324 ± 0.0007 | OCCO [1,2-ethanediol]
